Tests used:
PI3K = PI3K (Homo sapiens, UniProt P42336); assay: Fluorescence polarization assay for PI3K; format: biochemical; settings: PI3Kα; read-out: PI3Kα IC50;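 note: PI3K kinase reaction on PIP2 with ATP, 30-60 min, product sensed by GST-GRP with red probe in fluorescence polarization (mP), controls without enzyme and at zero time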
prostate line LNCap = assay: In vitro cell culture growth assay (MTS), LNCap; format: cell-based, human; settings: LNCap cells, three days after drug treatment;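 note: viable cell density read by absorbance at 490 nm, growth expressed as percent of vehicle-treated cells on the same plate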
breast line MDA468 = assay: In vitro cell culture growth assay (MTS), MDA468; format: cell-based, human; settings: MDA468 cells, three days after drug treatment
Summary of the method: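 Steps: plate cells; add inhibitors the next day; incubate 3 days; add MTS dye, which viable cells convert metabolically; measure absorbance at 490 nm; calculate percent of control growth relative to vehicle-treated cells in the same plate.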

Chain of PI3K (P42336 whole entry): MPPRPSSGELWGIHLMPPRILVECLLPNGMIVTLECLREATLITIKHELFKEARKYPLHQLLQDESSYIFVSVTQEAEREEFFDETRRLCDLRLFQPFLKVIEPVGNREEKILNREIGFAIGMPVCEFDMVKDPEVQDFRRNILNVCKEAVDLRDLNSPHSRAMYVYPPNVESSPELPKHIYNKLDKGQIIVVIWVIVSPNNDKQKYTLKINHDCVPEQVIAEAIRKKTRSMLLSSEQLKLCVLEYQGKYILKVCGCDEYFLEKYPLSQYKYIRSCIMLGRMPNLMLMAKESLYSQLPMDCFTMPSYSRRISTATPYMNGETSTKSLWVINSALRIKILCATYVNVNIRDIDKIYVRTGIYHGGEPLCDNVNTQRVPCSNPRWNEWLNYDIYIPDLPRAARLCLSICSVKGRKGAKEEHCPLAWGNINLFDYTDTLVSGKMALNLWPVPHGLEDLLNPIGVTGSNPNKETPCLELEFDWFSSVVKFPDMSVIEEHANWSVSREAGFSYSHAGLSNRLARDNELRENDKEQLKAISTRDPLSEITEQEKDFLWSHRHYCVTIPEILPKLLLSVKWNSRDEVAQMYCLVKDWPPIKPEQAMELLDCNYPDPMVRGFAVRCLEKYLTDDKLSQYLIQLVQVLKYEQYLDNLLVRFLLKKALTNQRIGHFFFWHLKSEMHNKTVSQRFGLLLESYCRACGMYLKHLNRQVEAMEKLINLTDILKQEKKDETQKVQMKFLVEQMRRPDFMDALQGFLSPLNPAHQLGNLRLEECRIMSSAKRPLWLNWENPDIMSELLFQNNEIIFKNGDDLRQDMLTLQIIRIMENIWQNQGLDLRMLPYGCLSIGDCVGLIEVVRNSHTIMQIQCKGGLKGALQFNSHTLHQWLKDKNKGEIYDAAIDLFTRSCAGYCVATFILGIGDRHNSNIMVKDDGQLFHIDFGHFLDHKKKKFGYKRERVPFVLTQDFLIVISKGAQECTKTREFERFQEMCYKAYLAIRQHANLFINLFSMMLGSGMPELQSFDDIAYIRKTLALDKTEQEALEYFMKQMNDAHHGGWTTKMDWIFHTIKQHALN
Chain of PI3K (P27986 whole entry partner): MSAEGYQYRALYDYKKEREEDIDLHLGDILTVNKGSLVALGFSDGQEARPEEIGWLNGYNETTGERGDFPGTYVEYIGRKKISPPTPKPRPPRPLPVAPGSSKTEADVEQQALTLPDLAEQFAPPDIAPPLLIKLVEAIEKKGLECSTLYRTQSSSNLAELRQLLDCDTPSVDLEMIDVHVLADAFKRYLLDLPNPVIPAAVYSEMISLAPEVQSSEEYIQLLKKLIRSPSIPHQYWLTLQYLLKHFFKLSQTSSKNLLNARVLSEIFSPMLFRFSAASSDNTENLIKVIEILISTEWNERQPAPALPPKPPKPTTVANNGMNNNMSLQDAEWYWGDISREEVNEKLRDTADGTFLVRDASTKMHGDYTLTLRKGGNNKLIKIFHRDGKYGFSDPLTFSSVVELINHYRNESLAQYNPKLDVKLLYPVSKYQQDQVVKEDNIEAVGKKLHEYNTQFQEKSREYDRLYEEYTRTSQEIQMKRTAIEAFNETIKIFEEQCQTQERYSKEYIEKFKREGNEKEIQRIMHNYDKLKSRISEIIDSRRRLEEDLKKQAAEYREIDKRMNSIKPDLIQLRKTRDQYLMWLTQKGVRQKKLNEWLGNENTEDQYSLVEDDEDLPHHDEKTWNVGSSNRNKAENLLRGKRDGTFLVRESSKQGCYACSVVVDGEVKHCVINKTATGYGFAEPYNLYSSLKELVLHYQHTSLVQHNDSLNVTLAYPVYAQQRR

Row | IC50 (PI3K) | IC50 (prostate line LNCap; Homo sapiens, LNCaP, 72 h) | IC50 (prostate line LNCap) | Compound | IC50 (breast line MDA468; Homo sapiens, 72 h) | IC50 (breast line MDA468)
1 | 75 nM | 35 nM |  | CNC(=O)Nc1ccc(-c2nc(N3CCOCC3)c3cnn(C4CCN(C(=O)c5cccc(OC)c5)CC4)c3n2)cc1 [Compound 610, 1-(4-{1-[1-(3-methoxybenzoyl)piperidin-4-yl]-4-morpholin-4-yl-1H-pyrazolo[3,4-d]pyrimidin-6-yl}phenyl)-3-methylurea] | 340 nM | 
2 | 846 nM | 220 nM |  | Cc1ccc(C(=O)N2CCC(n3ncc4c(N5CCOCC5)nc(-c5ccc6[nH]ccc6c5)nc43)CC2)cc1 [Example 53] | 3900 nM | 
3 | 32 nM | 200 nM |  | O=C(Nc1ccc(-c2nc(N3CCOCC3)c3cnn(C4CCN(C(=O)c5cccnc5)CC4)c3n2)cc1)Nc1cccnc1 [Compound 547, 1-(4-{4-morpholin-4-yl-1-[1-(pyridin-3-ylcarbonyl)piperidin-4-yl]-1H-pyrazolo[3,4-d]pyrimidin-6-yl}phenyl)-3-pyridin-3-ylurea] | 27 nM | 
4 | 877 nM | 13000 nM |  | NC(=O)c1cccc(-c2nc(N3CCOCC3)c3cnn(C4CCN(Cc5ccccc5)CC4)c3n2)c1 [Compound 82] | 29000 nM | 
5 | 8000 nM | 2000 nM |  | CN/C(=N\c1ccc(-c2nc(N3CCOCC3)c3cnn(C4CCN(C(=O)OC(C)C)CC4)c3n2)cc1)SC [Compound 832, isopropyl 4-[6-(4-{[(1E)-(methylamino)(methylthio)methylene]amino}phenyl)-4-morpholin-4-yl-1H-pyrazolo[3,4-d]pyrimidin-1-yl]piperidine-1-carboxylate] | 3700 nM | 
6 | 364 nM | 80 nM |  | O=C(NCCCO)Nc1ccc(-c2nc(N3CCOCC3)c3cnn(C4CCN(Cc5ccccc5)CC4)c3n2)cc1 [Example 269, 1-{4-[1-(1-benzylpiperidin-4-yl)-4-morpholin-4-yl-1H-pyrazolo[3,4-d]pyrimidin-6-yl]phenyl}-3-(3-hydroxypropyl)urea] | 700 nM | 
7 | 9 nM | 27 nM |  | O=C(Nc1ccc(-c2nc(N3CCOCC3)c3cnn(C4CCN(Cc5cccnc5)CC4)c3n2)cc1)Nc1cccs1 [Example 404, 1-(4-{4-morpholin-4-yl-1-[1-(pyridin-3-ylmethyl)piperidin-4-yl]-1H-pyrazolo[3,4-d]pyrimidin-6-yl}phenyl)-3-(2-thienyl)urea] | 100 nM | 
8 | 30 nM |  | 27 nM | CNC(=O)Nc1ccc(-c2nc(N3CCOCC3)c3cnn(C4CCN(Cc5cccc(F)c5)CC4)c3n2)cc1 [Compound 672, 1-(4-{1-[1-(3-fluorobenzyl)piperidin-4-yl]-4-morpholin-4-yl-1H-pyrazolo[3,4-d]pyrimidin-6-yl}phenyl)-3-methylurea] |  | 150 nM
9 | 42 nM | 800 nM |  | CNC(=O)Nc1ccc(-c2nc(N3CCOCC3)c3cnn(C4CCN(C(=O)c5cccnc5)CC4)c3n2)cn1 [Compound 480, 1-methyl-3-(5-{4-morpholin-4-yl-1-[1-(pyridin-3-ylcarbonyl)piperidin-4-yl]-1H-pyrazolo[3,4-d]pyrimidin-6-yl}pyridin-2-yl)urea] | 1200 nM | 
10 | 9000 nM | 12000 nM |  | CN(C)CC(=O)Nc1ccc(-c2nc(N3CCOCC3)c3cnn(C4CCCCO4)c3n2)cc1 (stereo not drawn) [Compound 521, N2,N2-dimethyl-N-{4-[4-morpholin-4-yl-1-(tetrahydro-2H-pyran-2-yl)-1H-pyrazolo[3,4-d]pyrimidin-6-yl]phenyl}glycinamide] | 40000 nM | 
11 | 1920 nM |  | 200 nM | COC(=O)Nc1ccc(-c2nc(N3CCOCC3)c3cnn(C4CCN(C(=O)c5ccccn5)CC4)c3n2)cc1 [Compound 685, methyl (4-{4-morpholin-4-yl-1-[1-(pyridin-2-ylcarbonyl)piperidin-4-yl]-1H-pyrazolo[3,4-d]pyrimidin-6-yl}phenyl)carbamate] |  | 580 nM
12 | 3090 nM | 780 nM |  | c1ccc(CCN2CCC(n3ncc4c(N5CCOCC5)nc(-c5ccc6[nH]ccc6c5)nc43)CC2)cc1 [Compound 489, 6-(1H-indol-5-yl)-4-morpholin-4-yl-1-[1-(2-phenylethyl)piperidin-4-yl]-1H-pyrazolo[3,4-d]pyrimidine] | 3100 nM | 
13 | 126 nM | 140 nM |  | CNC(=O)Nc1ccc(-c2nc(N3CCOCC3)c3cnn(C4CCN(CC(=O)OC)CC4)c3n2)cc1 [Compound 794, methyl [4-(6-{4-[(methylcarbamoyl)amino]phenyl}-4-morpholin-4-yl-1H-pyrazolo[3,4-d]pyrimidin-1-yl)piperidin-1-yl]acetate] | 500 nM | 
14 | 74 nM | 27 nM |  | CNC(=O)Nc1ccc(-c2nc(N3CCOCC3)c3cnn(C4CCC5(CC4)OCCO5)c3n2)cc1 [Example 321, 1-{4-[1-(1,4-dioxaspiro[4.5]dec-8-yl)-4-morpholin-4-yl-1H-pyrazolo[3,4-d]pyrimidin-6-yl]phenyl}-3-methylurea] | 100 nM | 
15 | 890 nM | 3800 nM |  | O=C(Nc1ccc(-c2nc(N3CCOCC3)c3cnn(C4CCN(CC(F)(F)F)CC4)c3n2)cc1)Nc1ccccn1 [Compound 785, 1-(4-{4-morpholin-4-yl-1-[1-(2,2,2-trifluoroethyl)piperidin-4-yl]-1H-pyrazolo[3,4-d]pyrimidin-6-yl}phenyl)-3-pyridin-2-ylurea] | 12000 nM | 
16 | 40 nM | < 27 nM |  | CCOC(=O)N1CCC(n2ncc3c(N4CCOCC4)nc(-c4ccc(NC(=O)Nc5ccncc5)cc4)nc32)CC1 [Compound 817, ethyl 4-(4-morpholin-4-yl-6-{4-[(pyridin-4-ylcarbamoyl)amino]phenyl}-1H-pyrazolo[3,4-d]pyrimidin-1-yl)piperidine-1-carboxylate] | < 27 nM | 
17 | 72 nM | 50 nM |  | CNC(=O)Nc1ccc(-c2nc(N3CCOCC3)c3cnn(C4CCN(C(=O)SC)CC4)c3n2)cc1 [Compound 761, S-methyl 4-(6-{4-[(methylcarbamoyl)amino]phenyl}-4-morpholin-4-yl-1H-pyrazolo[3,4-d]pyrimidin-1-yl)piperidine-1-carbothioate] | 120 nM | 
18 | 107 nM | 310 nM |  | Oc1cccc(-c2nc(N3CCOCC3)c3cnn(C4CCN(CC5CCCCC5)CC4)c3n2)c1 [Compound 17] | 2000 nM | 
19 | 30 nM | 3000 nM |  | CNC(=O)Nc1ccc(-c2nc(N3CCOCC3)c3cnn(C4CCN(C(=O)Nc5cccnc5)CC4)c3n2)cc1 [Example 335, 4-(6-{4-[(methylcarbamoyl)amino]phenyl}-4-morpholin-4-yl-1H-pyrazolo[3,4-d]pyrimidin-1-yl)-N-pyridin-3-ylpiperidine-1-carboxamide] | 2500 nM | 
20 | 109 nM | 35 nM |  | CNC(=O)Nc1ccc(-c2nc(N3CCOCC3)c3cnn(C4CCN(Cc5ccc(F)nc5)CC4)c3n2)cc1 [Example 387, 1-[4-(1-{1-[(6-fluoropyridin-3-yl)methyl]piperidin-4-yl}-4-morpholin-4-yl-1H-pyrazolo[3,4-d]pyrimidin-6-yl)phenyl]-3-methylurea] | 100 nM | 
21 | 198 nM | 320 nM |  | CNC(=O)Nc1ccc(-c2nc(N3CCOCC3)c3cnn(C4CCN(C(=O)c5cnccn5)CC4)c3n2)cc1 [Example 422, 1-methyl-3-(4-{4-morpholin-4-yl-1-[1-(pyrazin-2-ylcarbonyl)piperidin-4-yl]-1H-pyrazolo[3,4-d]pyrimidin-6-yl}phenyl)urea] | 400 nM | 
